{"source": "patent US20100144660A1", "about": "“USE OF N,N-DIETHYL-2-[-4-(PHENYLMETHYL)-PHENOXY]ETHANAMINE MONOHYDROCHLORIDE (DPPE) IN CANCER THEREAPY” (YM Biosciences Inc., priority 2001, published 2010)", "key": {"[1]": {"conditions": "competition assays; cited from earlier work"}, "[2]": {"tested_on": "breast cancer patients who relapsed following surgery", "assay": "Phase III clinical trial: DPPE and doxorubicin versus doxorubicin alone, survival analysis by subgroup", "type": "in vivo, human", "conditions": "for 1 yr (one year survival) / MST (median survival time): only ER known; for median survival time (MST) / one year survival: duration 6-36 month, prior chemotherapy group (FIG. 27), DPPE added to doxorubicin versus doxorubicin alone", "experimental": "Two arms of treatment were involved in this trial. Patients were randomly selected to participate in either arm. In one arm, patients were treated with DPPE and doxorubicin, in the other arm patients were treated with doxorubicin alone.\nIn the trial, patients were permitted to stay on doxorubicin for a maximum of about 7 cycles (5 months). […] DPPE was administered to patients in the amount of 6 mg/kg (or 240 mg/M^2) over 80 minutes, with the concurrent administration of doxorubicin over the last 20 minutes at a […] of 60-90 mg/M^2.\nThe patients in the trial were assigned to subgroups based on duration, i.e. the length of time between the initial diagnosis of breast cancer and the appearance of advanced disease. The subgroups were: (i) less than or equal to 6 months, (ii) between 6 months and 36 months and (iii) more than 36 months.\nFor this subgroup analysis, the 3 duration subgroups (<6 m, 6-36 m and >36 m) are further subdivided into groups of patients that (i) have undergone prior chemotherapy, and (ii) have not undergone prior chemotherapy.\nFor this analysis, the patients in the trial were divided into subgroups based on Eastern Cooperative Oncology Group (ECOG) Performance Status (PS).\nIn this example, the patients were divided into subgroups of those patients that originated from Eastern Europe and those that originated mainly from Western Europe and North America."}, "[3]": {"tested_on": "MCF-7 breast cancer cells", "conditions": "ER−/AEBS+ or ER+/AEBS+ cells; cited from earlier work"}, "[4]": {"tested_on": "normal and malignant cells", "conditions": "cited from earlier work"}, "[5]": {"tested_on": "intracellular histamine receptors", "conditions": "cited from earlier work"}, "[6]": {"tested_on": "hormone-unresponsive metastatic prostate cancer", "conditions": "intravenous infusion of DPPE over approximately one hour prior to cyclophosphamide; cited from earlier work"}, "[7]": {"conditions": "cited from earlier work"}, "[8]": {"conditions": "Geographically restricted subset"}, "[9]": {"conditions": "Geographically restricted subset (Eastern Europe excluded)"}, "[10]": {"conditions": "duration <36 m, ER+ (known ER status)"}, "[11]": {"conditions": "duration <36 m, ER− (known ER status)"}, "[12]": {"conditions": "duration >36 M, ER+ (known ER status)"}, "[13]": {"conditions": "duration >36 m, ER− (known ER status)"}, "[14]": {"conditions": "response PD (progressive disease)"}}, "note": "Like-named read-outs stand apart in the source and are kept apart here."}
{"smiles": "CCN(CC)CCOc1ccc(C(=O)c2ccc(F)cc2)cc1", "note": "[DFPE, N,N-diethyl-2-[4-(4′-fluorophenone)-phenoxy]ethanamine]", "values": [{"measurement": "potency compared to DPPE", "setting": "[1]", "result": "greater potency"}]}
{"smiles": "COc1cccc2c1C(=O)c1c(O)c3c(c(O)c1C2=O)C[C@@](O)(C(=O)CO)C[C@@H]3O[C@H]1C[C@H](N)[C@H](O)[C@H](C)O1", "note": "[DOX, doxorubicin]", "values": [{"measurement": "1 yr survival", "setting": "[2]; ECOG PS 0", "result": 75, "unit": "%"}, {"measurement": "MST", "setting": "[2]; ECOG PS 0", "result": 20.3, "unit": "m"}, {"measurement": "1 yr survival", "setting": "[2]; ECOG PS 1", "result": 48, "unit": "%"}, {"measurement": "MST", "setting": "[2]; ECOG PS 1", "result": 11.7, "unit": "m"}, {"measurement": "1 yr survival", "setting": "[2]; ECOG PS 2", "result": 33, "unit": "%"}, {"measurement": "MST", "setting": "[2]; ECOG PS 2", "result": 5.9, "unit": "m"}, {"measurement": "1 yr (one year survival)", "setting": "[2]; ER+ patients", "result": 62, "unit": "%"}, {"measurement": "MST (median survival time)", "setting": "[2]; ER+ patients", "result": 16.5, "unit": "m"}, {"measurement": "1 yr (one year survival)", "setting": "[2]; ER− patients", "result": 36, "unit": "%"}, {"measurement": "MST (median survival time)", "setting": "[2]; ER− patients", "result": 9.5, "unit": "m"}, {"measurement": "Survival by ECOG = 0, 1 yr", "setting": "[2]; [8]", "result": 63, "unit": "%"}, {"measurement": "Survival by ECOG = 0, MST", "setting": "[2]; [8]", "result": 16.5, "unit": "m"}, {"measurement": "Survival by ECOG = 1, 1 yr", "setting": "[2]; [8]", "result": 42, "unit": "%"}, {"measurement": "Survival by ECOG = 1, MST", "setting": "[2]; [8]", "result": 11.5, "unit": "m"}, {"measurement": "Survival by ER status ER−, 1 yr", "setting": "[2]; [8]", "result": 39, "unit": "%"}, {"measurement": "Survival by ER status ER−, MST", "setting": "[2]; [8]", "result": 9, "unit": "m"}, {"measurement": "Survival by ER+, 1 yr", "setting": "[2]; [8]", "result": 55, "unit": "%"}, {"measurement": "Survival by ER+, MST", "setting": "[2]; [8]", "result": 15.5, "unit": "m"}, {"measurement": "Survival by duration: 6-36 m, MST", "setting": "[2]; [8]", "result": 9, "unit": "m"}, {"measurement": "Survival by response: CR/PR, 1 yr", "setting": "[2]; [8]", "result": 62, "unit": "%"}, {"measurement": "Survival by response: SD, 1 yr", "setting": "[2]; [8]", "result": 53, "unit": "%"}, {"measurement": "Survival by response: SD, MST", "setting": "[2]; [8]", "result": 12, "unit": "m"}, {"measurement": "Survival for ER+ vs ER− within the arm", "setting": "[2]; [8]", "result": "ER+ considerably better than ER−"}, {"measurement": "Overall survival 1 yr", "setting": "[2]; [9]", "result": 50, "unit": "%"}, {"measurement": "Overall survival MST", "setting": "[2]; [9]", "result": 12, "unit": "m"}, {"measurement": "Overall survival 1 yr", "setting": "[2]; Whole trial (Table 10)", "result": 60, "unit": "%"}, {"measurement": "Overall survival MST", "setting": "[2]; Whole trial (Table 10)", "result": 15.6, "unit": "m"}, {"measurement": "Survival by ECOG = 0, 1 yr", "setting": "[2]; Whole trial (Table 10)", "result": 75, "unit": "%"}, {"measurement": "Survival by ECOG = 0, MST", "setting": "[2]; Whole trial (Table 10)", "result": 20.3, "unit": "m"}, {"measurement": "Survival by ECOG = 1, 1 yr", "setting": "[2]; Whole trial (Table 10)", "result": 48, "unit": "%"}, {"measurement": "Survival by ECOG = 1, MST", "setting": "[2]; Whole trial (Table 10)", "result": 11.7, "unit": "m"}, {"measurement": "Survival by ER status ER−, 1 yr", "setting": "[2]; Whole trial (Table 10)", "result": 36, "unit": "%"}, {"measurement": "Survival by ER status ER−, MST", "setting": "[2]; Whole trial (Table 10)", "result": 9.5, "unit": "m"}, {"measurement": "Survival by ER+, 1 yr", "setting": "[2]; Whole trial (Table 10)", "result": 62, "unit": "%"}, {"measurement": "Survival by ER+, MST", "setting": "[2]; Whole trial (Table 10)", "result": 16, "unit": "m"}, {"measurement": "Survival by duration: 6-36 m, MST", "setting": "[2]; Whole trial (Table 10)", "result": 11.5, "unit": "m"}, {"measurement": "Survival by response: CR/PR, 1 yr", "setting": "[2]; Whole trial (Table 10)", "result": 74, "unit": "%"}, {"measurement": "Survival by response: SD, 1 yr", "setting": "[2]; Whole trial (Table 10)", "result": 59, "unit": "%"}, {"measurement": "Survival by response: SD, MST", "setting": "[2]; Whole trial (Table 10)", "result": 17, "unit": "m"}, {"measurement": "Survival for ER+ vs ER− within the arm", "setting": "[2]; Whole trial (Table 10)", "result": "ER+ considerably better than ER−"}, {"measurement": "lived on average (survival)", "setting": "[2]; all breast cancer patients of the trial", "result": "fifteen"}, {"measurement": "median survival time (MST)", "setting": "[2]", "result": 10.7, "unit": "months"}, {"measurement": "one year survival", "setting": "[2]", "result": 40, "unit": "%"}, {"measurement": "1 yr survival", "setting": "[2]; duration <6 m", "result": 56, "unit": "%"}, {"measurement": "MST", "setting": "[2]; duration <6 m", "result": 15, "unit": "m"}, {"measurement": "1 yr survival", "setting": "[2]; [10]", "result": 52, "unit": "%"}, {"measurement": "MST", "setting": "[2]; [10]", "result": 15.5, "unit": "m"}, {"measurement": "1 yr survival", "setting": "[2]; [11]", "result": 36, "unit": "%"}, {"measurement": "MST", "setting": "[2]; [11]", "result": 9.5, "unit": "m"}, {"measurement": "1 yr survival", "setting": "[2]; duration >6 but <36 m", "result": 45, "unit": "%"}, {"measurement": "MST", "setting": "[2]; duration >6 but <36 m", "result": 11.5, "unit": "m"}, {"measurement": "1 yr survival", "setting": "[2]; [12]", "result": 82, "unit": "%"}, {"measurement": "MST", "setting": "[2]; [12]", "result": 18, "unit": "m"}, {"measurement": "1 yr survival", "setting": "[2]; duration >36 m", "result": 77, "unit": "%"}, {"measurement": "MST", "setting": "[2]; duration >36 m", "result": 20.3, "unit": "m"}, {"measurement": "1 yr survival", "setting": "[2]; [13]", "result": 66, "unit": "%"}, {"measurement": "MST", "setting": "[2]; [13]", "result": 12, "unit": "m"}, {"measurement": "median survival time (FIG. 22)", "setting": "[2]; duration >36 months", "result": 28.6356}, {"measurement": "median survival time (FIG. 21)", "setting": "[2]; duration of ≦36 months", "result": 12.1973}, {"measurement": "1 yr survival", "setting": "[2]; response CR/PR", "result": 74, "unit": "%"}, {"measurement": "MST", "setting": "[2]; response CR/PR", "result": 28.5, "unit": "m"}, {"measurement": "1 yr survival", "setting": "[2]; [14]", "result": 34, "unit": "%"}, {"measurement": "MST", "setting": "[2]; [14]", "result": 10.5, "unit": "m"}, {"measurement": "1 yr survival", "setting": "[2]; response SD (stable disease)", "result": 59, "unit": "%"}, {"measurement": "MST", "setting": "[2]; response SD (stable disease)", "result": 17, "unit": "m"}]}
{"smiles": "CCN(CC)CCOc1ccc(Cc2ccccc2)cc1.Cl", "note": "[DPPE, N,N-diethyl-2-[-4-(phenylmethyl)-phenoxy]ethanamine monohydrochloride]", "values": [{"measurement": "Survival by response: PD, comparison of arms", "setting": "[2]; Geographically restricted subset, DPPE/DOX versus DOX", "result": "DPPE a little better at first"}, {"measurement": "survival benefit from the addition of DPPE", "setting": "[2]; duration 6-36 m, no prior chemotherapy group", "result": "little, if any, benefit"}, {"measurement": "median survival time (MST)", "setting": "[2]", "result": "> 17.5", "unit": "months"}, {"measurement": "one year survival", "setting": "[2]", "result": "under 70%"}, {"measurement": "survival benefit from the addition of DPPE", "setting": "[2]; duration >36 m, prior and no prior chemotherapy subgroups", "result": "neither of the subgroups show any benefit"}, {"measurement": "in vitro growth of MCF-7 breast cancer cells", "setting": "[3]", "result": "inhibit"}, {"measurement": "cell proliferation in vivo", "setting": "[4]; animal model", "result": "inhibit normal cell proliferation while promoting malignant cell proliferation"}, {"measurement": "interaction with doxorubicin (Adriamycin)", "setting": "[4]; tumour-bearing animals treated concurrently with DPPE", "result": "act synergistically"}, {"measurement": "antagonism of intracellular histamine receptors", "setting": "[5]", "result": "potent antagonist"}, {"measurement": "effect on anti-cancer activity and toxicity of cyclophosphamide", "setting": "[6]", "result": "potentiate the anti-cancer activity and ameliorate the toxicity"}, {"measurement": "toxicity", "setting": "[7]; 4 mg/kg (160 mg/M^2) over 1 hour intravenously", "result": "non-toxic"}, {"measurement": "clinical side effects", "setting": "[7]; 8 mg/M^2 over 24 to 72 hours", "result": "do not result in clinical side effects"}, {"measurement": "toxicity", "setting": "[7]; 240 mg/M^2 over 1 hour", "result": "may result in CNS toxicity"}]}
